Test results taken from patent US20090305995A1, “AGONISTS AND ANTAGONISTS OF THE SOMATOSTATIN RECEPTOR” (Novartis AG, priority 2004, published 2009).
Converted amounts (≈) assume the structure as drawn. Like-named read-outs stand apart in the source and are kept apart here.

Columns and labels:
Assay type in all cases: physicochemical
[1] = high throughput solubility (HT-Solubility); conditions: for water solubility (in words): see FIG. 10
[2] = high throughput permeability (HT-Permeability, log Pe); conditions: PAMPA, Pe in cm/s
[3] = HT-logP o/w, high throughput assay based on artificial liquid membrane permeability
Description: To be absorbed and transported by passive diffusion, drugs must be sufficiently lipophilic to penetrate the lipid cores of membranes, but not too lipophilic that they get retained and accumulated there. The lipophilictity of a compound is expressed by the octanol/water partition coefficient or distribution coefficient. A first approximation of substance polarity can either be given by computer assisted calculations giving Clog P values or by measurement of the partition coefficients in high-throughput assays (HT-log P o/w) (Faller et al., 2004; Wohnsland et al., 2001).
Octanol/water partition coefficients are measured in a high throughput assay based on artificial liquid membrane permeability. […] Still many approaches to calculate log P values are limited due to a lack of parameterization of certain fragments and fail with increasing molecular weight which implicates higher structural complexity. Similar problems and failures are observed in chromatographic determinations of log P: Peptides might undergo structural changes driven by interactions with the stationary phase. Decisive interactions between the stationary phase and the defolded analytes are therefore also based on the linear peptide sequence. For this reason measured HT-log P o/w values based on chromatographic assays employing stationary phases may lead to erroneous results.

[4] = pH 1, pH 1.0, read-out: HT-Solubility pH 1.0
[5] = pH 6.8, pH 6.8, read-out: HT-Solubility pH 6.8
[6] = pH 4, pH 4.0, read-out: HT-Permeability logPe pH 4.0 (converted)
[7] = pH 1.0, read-out: HT-Solubility pH 1.0
[8] = pH 6.8, read-out: HT-Solubility pH 6.8
[9] = pH 4.0, read-out: HT-Permeability logPe pH 4.0 (converted)
[10] = octanol/water; read-out: HT LogP ohw
[11] = octanol/water, read-out: HT LogP ohw
[12] = pH 8, pH 8.0, read-out: HT-Permeability logPe pH 8.0 (converted)
[13] = pH 6.8, pH 6.8, read-out: HT-Permeability logPe pH 6.8 (converted)

Compound	solubility [1, 4] [µg/mL]	solubility [1, 5] [µg/mL]	Papp [2, 6] [×10⁻⁶ cm/s]	logP [3, 11]	other results
CC(=O)N[C@H](CC(=O)N[C@H](Cc1c[nH]c2ccccc12)C(=O)N[C@@H](CCCCN)CC(=O)N[C@H](CC(N)=O)[C@@H](C)O)Cc1ccccc1 [Compound 2, Ac—(S)-β^3-HPhe-(R)-Trp-(S)-β^3-HLys-(R), (R)—HThr-NH2]	13.3 (≈ 20 µM)	13.3 (≈ 20 µM)	0.1	–	–
C[C@H]1OC(=O)C[C@H]1NC(=O)C[C@H](CCCCN)NC(=O)[C@@H](Cc1c[nH]c2ccccc12)NC(=O)C[C@H](Cc1ccccc1)NC(=O)c1ccccc1 [Compound 6, Benzoyl-(S)-β^3-HPhe-(R)-Trp-(S)-β^3-HLys-(R)-4-amino-(R)-5-methyl-dihydro-furan-2-one]	–	–	–	–	solubility [1, 7]: 142 µg/mL (≈ 200 µM); solubility [1, 8]: 14.2 µg/mL (≈ 20 µM); Papp [2, 9]: 0.1 ×10⁻⁶ cm/s; logP [3, 10]: 2.8
CC(=O)N[C@H](CC(=O)N[C@H](Cc1c[nH]c2ccccc12)C(=O)N[C@@H](CCCCN)CC(=O)N[C@@H]1CC(=O)O[C@@H]1C)Cc1ccccc1 [Compound 7, Ac—(S)-β^3-HPhe-(R)-Trp-(S)-β^3-HLys-(R)-4-amino-(R)-5-methyl-dihydro-furan-2-one]	129 (≈ 200 µM)	129 (≈ 200 µM)	–	–	–
C[C@H]1OC(=O)C[C@H]1NC(=O)C[C@H](CCCCN)NC(=O)[C@@H](Cc1c[nH]c2ccccc12)NC(=O)C[C@H](Cc1ccccc1)NC(=O)CCc1ccccc1 [Compound 10, Dihydrocinnemoyl-(S)-β^3-HPhe-(R)-Trp-(S)-β^3-HLys-(R)-4-amino-(R)-5-methyl-dihydro-furan-2-one]	36.8 (≈ 49.9 µM)	7.4 (≈ 10 µM)	0.1	2.7	–
CCCCCCCCC(=O)N[C@H](CC(=O)N[C@H](Cc1c[nH]c2ccccc12)C(=O)N[C@@H](CCCCN)CC(=O)N[C@@H]1CC(=O)O[C@@H]1C)Cc1ccccc1 [Compound 11]	14.9 (≈ 20 µM)	14.9 (≈ 20 µM)	0.1	3.9	–
C[C@H]1OC(=O)C[C@H]1NC(=O)C[C@H](CCCCN)NC(=O)[C@@H](Cc1c[nH]c2ccccc12)NC(=O)C[C@H](Cc1ccccc1)NC(=O)C12CC3CC(CC(C3)C1)C2 [Compound 13, Adamantoyl-(S)-β^3-HPhe-(R)-Trp-(S)-β^3-HLys-(R)-4-amino-(R)-5-methyl-dihydro-furan-2-one]	153 (≈ 200 µM)	76.7 (≈ 100 µM)	3.16	2.8	water solubility (in words) [1]: good water solubility; Papp [2, 12]: 10 ×10⁻⁶ cm/s
C[C@@H](O)[C@@H](CC(N)=O)NC(=O)C[C@H](CCCCN)NC(=O)[C@@H](Cc1c[nH]c2ccccc12)NC(=O)C[C@H](Cc1ccccc1)NC(=O)c1ccccc1 [Compound 14, Benzoyl-(S)-β^3-HPhe-(R)-Trp-(S)-β^3-HLys-(R), (R)—HThr-NH2]	–	–	–	–	solubility [1, 7]: 145 µg/mL (≈ 200 µM); solubility [1, 8]: 14.5 µg/mL (≈ 20 µM); Papp [2, 9]: 0.1 ×10⁻⁶ cm/s; logP [3, 10]: 2.6
C[C@@H](O)[C@@H](CC(N)=O)NC(=O)C[C@H](CCCCN)NC(=O)[C@@H](Cc1c[nH]c2ccccc12)NC(=O)C[C@H](Cc1ccccc1)NC(=O)CCc1ccccc1 [Compound 15, Dihydrocinnemoyl-(S)-β^3-HPhe-(R)-Trp-(S)-β^3-HLys-(R), (R)—HThr-NH2]	37.7 (≈ 50 µM)	15.1 (≈ 20 µM)	3.98	2.7	Papp [2, 13]: 6.31 ×10⁻⁶ cm/s; Papp [2, 12]: 12.6 ×10⁻⁶ cm/s
CCCCCCCCC(=O)N[C@H](CC(=O)N[C@H](Cc1c[nH]c2ccccc12)C(=O)N[C@@H](CCCCN)CC(=O)N[C@H](CC(N)=O)[C@@H](C)O)Cc1ccccc1 [Compound 17, Nonanoyl-(S)-β^3-HPhe-(R)-Trp-(S)-β^3-HLys-(R), (R)—HThr-NH2]	15.2 (≈ 19.9 µM)	15.2 (≈ 19.9 µM)	12.6	4.2	Papp [2, 13]: 2.51 ×10⁻⁶ cm/s
CC(C)[C@@H](CC(=O)N(C)CCc1ccccc1)NC(=O)C[C@H](CCCCN)NC(=O)[C@@H](Cc1c[nH]c2ccccc12)NC(=O)C[C@H](Cc1ccccc1)NC(=O)CCc1ccccc1 [Compound 23, Dihydrocinnemoyl-(S)-β^3-HPhe-(R)-Trp-(S)-β^3-HLys-(R)-β^3-Leu-methyl-phenethyl-amide]	17.4 (≈ 20 µM)	17.4 (≈ 20 µM)	0.1	5.9	–
C[C@@H](O)[C@@H](CC(N)=O)NC(=O)C[C@H](CCCCN)NC(=O)[C@@H](Cc1c[nH]c2ccccc12)NC(=O)C[C@H](Cc1ccccc1)NC(=O)C1CCCCC1 [Compound 26, Cyclohexanoyl-(S)-β^3-HPhe-(R)-Trp-(S)-β^3-HLys-(R), (R)—HThr-NH2]	7.3 (≈ 9.97 µM)	1.5 (≈ 2.05 µM)	–	3.3	–
CC(C)[C@@H](CC(=O)N(C)CCc1ccccc1)NC(=O)C[C@H](CCCCN)NC(=O)[C@@H](Cc1c[nH]c2ccccc12)NC(=O)C[C@H](Cc1ccccc1)NC(=O)C12CC3CC(CC(C3)C1)C2 [Compound 27, Adamantoyl-(S)-β^3-HPhe-(R)-Trp-(S)-β^3-HLys-(R)-β^3-Leu-methyl-phenethyl-amide]	45 (≈ 50 µM)	9 (≈ 10 µM)	–	–	–
C[C@H]1OC(=O)C[C@H]1NC(=O)C[C@H](CCCCN)NC(=O)[C@@H](Cc1c[nH]c2ccccc12)NC(=O)C[C@@H](N)Cc1ccccc1 [Compound 29]	–	–	–	–	HT-Solubility pH 1.0 ([1]; pH 1.0): 0.121 g 1-1; HT-Solubility pH 6.8 ([1]; pH 6.8): 0.121 g 1-1; HT LogP ohw ([3]; octanol/water): 3.3
C[C@@H](O)[C@@H](CC(N)=O)NC(=O)C[C@H](CCCCN)NC(=O)[C@@H](Cc1c[nH]c2ccccc12)NC(=O)C[C@@H](N)Cc1ccccc1 [Compound 36, (S)-β^3-HPhe-(R)-Trp-(S)-β^3-HLys-(R), (R)—HThr-NH2]	124 (≈ 200 µM)	124 (≈ 200 µM)	1.58	–	Papp [2, 12]: 2 ×10⁻⁶ cm/s
CCCCCNC(=O)C[C@H](CCCCN)NC(=O)[C@@H](Cc1c[nH]c2ccccc12)NC(=O)C[C@H](Cc1ccccc1)NC(C)=O [Compound 45, Ace-(S)-β^3-HPhe-(R)-Trp-(S)-β^3-HLys-pentyl-amide]	–	–	–	–	HT-Solubility pH 1.0 ([1]; pH 1.0): 0.1236 g 1-1; HT-Solubility pH 6.8 ([1]; pH 6.8): 0.0619 g 1-1; water solubility (in words) [1]: medium to good; HT LogP ohw ([3]; octanol/water): 3.2
CCCCCNC(=O)C[C@H](CCCCN)NC(=O)[C@@H](Cc1c[nH]c2ccccc12)NC(=O)C[C@H](Cc1ccccc1)NC(=O)CC [Compound 50]	127 (≈ 200 µM)	–	–	–	water solubility (in words) [1]: medium to good; logP [3, 10]: 3.4
CC(=O)N[C@H](CC(=O)N[C@H](Cc1c[nH]c2ccccc12)C(=O)N[C@@H](CCCCN)CC(N)=O)Cc1ccccc1 [Compound 58, Ace-(S)-β^3-HPhe-(R)-Trp-(S)-β^3-HLys-NH2]	110 (≈ 200 µM)	110 (≈ 200 µM)	1	–	Papp [2, 13]: 5.01 ×10⁻⁶ cm/s
CCC(=O)N[C@H](CC(=O)N[C@H](Cc1c[nH]c2ccccc12)C(=O)N[C@@H](CCCCN)CC(N)=O)Cc1ccccc1 [Compound 60, Propionyl-(S)-β^3-HPhe-(R)-Trp-(S)-β^3-HLys-NH2]	112 (≈ 200 µM)	112 (≈ 200 µM)	3.16	–	Papp [2, 13]: 7.94 ×10⁻⁶ cm/s; Papp [2, 12]: 1.26 ×10⁻⁶ cm/s
CCCCCN(C)C(=O)C[C@H](CCCCN)NC(=O)[C@@H](Cc1c[nH]c2ccccc12)N(C)C(=O)C[C@H](Cc1ccccc1)NC(=O)CC [Compound 63, Propionyl-(S)-β^3-HPhe-(R)—N-Me-Trp-(S)-β^3-HLys-methyl-pentyl-amide]	132 (≈ 200 µM)	132 (≈ 200 µM)	–	–	water solubility (in words) [1]: highest solubility values; logP [3, 10]: 3.9
CCCCCCN(C)C(=O)C[C@H](CCCCN)NC(=O)[C@@H](Cc1c[nH]c2ccccc12)N(Cc1ccccc1)C(=O)C[C@H](Cc1ccccc1)NC(=O)CC [Compound 69, Propionyl-(S)-β^3-HPhe-(R)—N-Benzyl-Trp-(S)-β^3-HLys-methyl-hexyl-amide]	–	–	–	–	HT-Solubility pH 1.0 ([1]; pH 1.0): 0.0751 g 1-1; HT-Solubility pH 6.8 ([1]; pH 6.8): 0.015 g 1-1; water solubility (in words) [1]: does not allow for good water solubilities; HT LogP ohw ([3]; octanol/water): 5.1
